The values below are quoted from earlier work in patent US7811790B2, “Polymyxin synthetase and gene cluster thereof” (priority 2005, dated 2010).

Data set [1] deals with antibiotics-resistant Klebsiella pneumoniae. The note with it: ventriculis caused by antibiotics-resistant Klebsiella pneumoniae.
In data set [2] the test system is Pseudomonas aeruginosa and Acinetobacter baumannii exhibiting resistance against the conventional antibiotics. The settings on record: intravenously injected, 60 patients.
Data set [3] concerns Pseudomonas aeruginosa having resistance against almost all antibiotics. The note with it: 3 osteomyelitis patients.
For data set [4], the system named is Acinetobacter having resistance against antibiotics. The settings on record: meningitis caused by antibiotic-resistant Acinetobacter.
For data set [5] the following is noted: therapeutic use.
For data set [6] the following is noted: water and organic solvent.

On to polymyxin B sulfate, for which, in the data set on Pseudomonas aeruginosa (at the concentration of 0.01 μg/ml), the “killed % of Pseudomonas aeruginosa” value was 88%.
Take polymyxin B: the “effect on gram-positive bacteria” value with gram-positive bacteria is on record as “no effect”. In the data set on fungi, the effect on fungi entry is “no effect”. For the same substance, the “effect on anaerobic bacteria” value in the data set on anaerobic bacteria is on record as “no effect”. In addition, in [1], the “outcome of treatment of ventriculis” value was “successfully treated”.
On to polymyxin E, for which the “concentration showing lethal effect” value with Pseudomonas aeruginosa (organism not restated in the sentence, follows the Pseudomonas aeruginosa sentence) is 0.1 µg/mL. Also, in the data set on gram-positive bacteria, the “effect on gram-positive bacteria” value is recorded as “no effect”. Further, the effect on fungi result with fungi is recorded as “no effect”. Besides, the “effect on anaerobic bacteria” value in the data set on anaerobic bacteria is listed as “no effect”. The patients improved in [2] is on record as 58%. Further, the “outcome of treatment of osteomyelitis” value in [3] is “improved”. Besides, the “outcome of treatment of meningitis” value in data set [4] is given as “successfully treated”.
In the case of polymyxin, in data set [5], the induced toxicity entry was “severe neurotoxicity and hepatotoxicity”; the side effects entry is “serious side effects such as fever, eruption and pain”. Also, the solubility result in [6] is “soluble in both water and an organic solvent”.
